Patent publication US20220267260A1, “COMPOUNDS CONTAINING A SULFONIC GROUP AS KAT INHIBITORS” (Epizyme, Inc., priority 2016, published 2022)
pIC50: −log10 of the molar value.

Key:
[1] = molecular target: T1, KAT5 (Homo sapiens, UniProt Q92993); experiment: KAT5 enzyme inhibition assay (SAMDI mass spectrometry); assay type: biochemical; details: His-TEV-FL KAT5-Flag enzyme construct
T1 construct: His-TEV tag (N, cleaved yes); made in house

[2] = molecular target: T2, KAT6A (Homo sapiens, UniProt Q92794); experiment: KAT6A enzyme inhibition assay (SAMDI mass spectrometry); assay type: biochemical; details: His-TEV-KAT6A 501-784 enzyme construct
T2 construct: His-TEV tag (N, cleaved yes); made in house
T2 sequence (Q92794 with tags, fused parts or gaps): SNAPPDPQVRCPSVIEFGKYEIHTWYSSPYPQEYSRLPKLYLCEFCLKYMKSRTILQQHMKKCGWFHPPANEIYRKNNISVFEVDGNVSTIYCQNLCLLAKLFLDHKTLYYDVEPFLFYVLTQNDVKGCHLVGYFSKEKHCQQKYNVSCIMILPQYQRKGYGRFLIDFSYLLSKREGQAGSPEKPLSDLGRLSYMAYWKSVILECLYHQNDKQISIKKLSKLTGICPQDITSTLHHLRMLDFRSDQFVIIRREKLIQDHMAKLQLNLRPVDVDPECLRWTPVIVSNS

T1 sequence (Q92993 with tags, fused parts or gaps): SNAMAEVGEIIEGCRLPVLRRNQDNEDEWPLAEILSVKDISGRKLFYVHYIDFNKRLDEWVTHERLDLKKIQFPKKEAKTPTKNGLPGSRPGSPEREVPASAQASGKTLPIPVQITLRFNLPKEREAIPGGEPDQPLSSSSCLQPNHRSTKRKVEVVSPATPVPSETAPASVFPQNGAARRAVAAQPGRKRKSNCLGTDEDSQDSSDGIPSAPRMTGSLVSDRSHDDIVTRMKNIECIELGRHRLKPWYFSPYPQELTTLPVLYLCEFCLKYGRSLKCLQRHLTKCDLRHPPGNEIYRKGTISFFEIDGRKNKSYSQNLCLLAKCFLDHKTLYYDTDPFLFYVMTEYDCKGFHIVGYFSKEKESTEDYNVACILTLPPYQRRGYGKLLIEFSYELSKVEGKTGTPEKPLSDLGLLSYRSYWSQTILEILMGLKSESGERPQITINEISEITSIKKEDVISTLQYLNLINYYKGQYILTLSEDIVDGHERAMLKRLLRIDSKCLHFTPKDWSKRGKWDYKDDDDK

## Cc1cc(-c2ccccc2)cc(C(=O)NNS(=O)(=O)Cc2ccccc2F)c1F [Compound I-82]
[1]
  pIC50: ≥ 5.00
[2]
  pIC50: ≥ 5.00

## Cc1cc(-c2ccccc2)cc(C(=O)NNS(=O)(=O)Cc2cccc(F)c2)c1F [Compound I-83]
[1]
  pIC50: ≥ 5.00
[2]
  pIC50: ≥ 5.00

## Cc1cc(-c2ccccc2)cc(C(=O)NNS(=O)(=O)Cc2ccc(F)cc2)c1F [Compound I-84]
[1]
  pIC50: ≥ 5.00
[2]
  pIC50: ≥ 5.00

## Cc1cc(-c2ccccc2)cc(C(=O)NNS(=O)(=O)C2CCN(C(=O)OC(C)(C)C)CC2)c1F [Compound I-88]
[1]
  pIC50: ≥ 5.00
[2]
  pIC50: ≥ 5.00

## Cc1cc(-c2ccccc2)cc(C(=O)NNS(=O)(=O)C2CCNCC2)c1F [Compound I-89]
[1]
  pIC50: < 4.00
[2]
  pIC50: < 4.00

## Cc1cc(-c2ccccc2)cc(C(=O)NNS(=O)(=O)C2CCN(C)CC2)c1F [Compound I-90]
[1]
  pIC50: 4.30 to 5.00
[2]
  pIC50: 4.30 to 5.00

## CCN1CCC(S(=O)(=O)NNC(=O)c2cc(-c3ccccc3)cc(C)c2F)CC1 [Compound I-91]
[1]
  pIC50: 4.30 to 5.00
[2]
  pIC50: 4.00 to 4.30

## Cc1cc(-c2ccccc2)cc(C(=O)NNS(=O)(=O)C2CCN(C(C)C)CC2)c1F [Compound I-92]
[1]
  pIC50: < 4.00
[2]
  pIC50: < 4.00

## COCCN1CCC(S(=O)(=O)NNC(=O)c2cc(-c3ccccc3)cc(C)c2F)CC1 [Compound I-93]
[1]
  pIC50: 4.30 to 5.00
[2]
  pIC50: 4.30 to 5.00

## CC(=O)N1CCC(S(=O)(=O)NNC(=O)c2cc(-c3ccccc3)cc(C)c2F)CC1 [Compound I-94]
[1]
  pIC50: 4.30 to 5.00
[2]
  pIC50: 4.30 to 5.00

## Cc1cc(-c2ccccc2)cc(C(=O)NNS(=O)(=O)C2CCCNC2)c1F (stereo not shown) [Compound I-97]
[1]
  pIC50: < 4.00
[2]
  pIC50: 4.00 to 4.30

## Cc1cc(-c2ccccc2)cc(C(=O)NNS(=O)(=O)C2CCCN(C)C2)c1F (stereo not shown) [Compound I-98]
[1]
  pIC50: < 4.00
[2]
  pIC50: 4.30 to 5.00

## CCN1CCCC(S(=O)(=O)NNC(=O)c2cc(-c3ccccc3)cc(C)c2F)C1 (stereo not shown) [Compound I-99]
[1]
  pIC50: < 4.00
[2]
  pIC50: 4.30 to 5.00

## Cc1cc(-c2ccccc2)cc(C(=O)NNS(=O)(=O)C2CCCN(C(C)C)C2)c1F (stereo not shown) [Compound I-100]
[1]
  pIC50: < 4.00
[2]
  pIC50: 4.00 to 4.30

## COCCN1CCCC(S(=O)(=O)NNC(=O)c2cc(-c3ccccc3)cc(C)c2F)C1 (stereo not shown) [Compound I-101]
[1]
  pIC50: 4.30 to 5.00
[2]
  pIC50: 4.30 to 5.00

## CC(=O)N1CCCC(S(=O)(=O)NNC(=O)c2cc(-c3ccccc3)cc(C)c2F)C1 (stereo not shown) [Compound I-102]
[1]
  pIC50: 4.30 to 5.00
[2]
  pIC50: 4.30 to 5.00

## COCCN1CC(S(=O)(=O)NNC(=O)c2cccc(C)c2F)C1 [Compound I-103]
[1]
  pIC50: < 4.00
[2]
  pIC50: < 4.00

## CCC(=O)N1CCC(S(=O)(=O)NNC(=O)c2cc(-c3ccccc3)cc(C)c2F)C1 (stereo not shown) [Compound I-104]
[1]
  pIC50: 4.00 to 4.30
[2]
  pIC50: 4.30 to 5.00

## Cc1cc(-c2ccccc2)cc(C(=O)NNS(=O)(=O)C2CCN(C(=O)C(C)C)C2)c1F (stereo not shown) [Compound I-105]
[1]
  pIC50: 4.30 to 5.00
[2]
  pIC50: 4.30 to 5.00

## COCCC(=O)N1CCC(S(=O)(=O)NNC(=O)c2cc(-c3ccccc3)cc(C)c2F)C1 (stereo not shown) [Compound I-106]
[1]
  pIC50: 4.30 to 5.00
[2]
  pIC50: 4.30 to 5.00

## CCC(=O)N1CCC(S(=O)(=O)NNC(=O)c2cc(-c3ccccc3)cc(C)c2F)CC1 [Compound I-107]
[1]
  pIC50: 4.30 to 5.00
[2]
  pIC50: 4.30 to 5.00

## Cc1cc(-c2ccccc2)cc(C(=O)NNS(=O)(=O)C2CCN(C(=O)C(C)C)CC2)c1F [Compound I-108]
[1]
  pIC50: ≥ 5.00
[2]
  pIC50: 4.30 to 5.00

## COCCC(=O)N1CCC(S(=O)(=O)NNC(=O)c2cc(-c3ccccc3)cc(C)c2F)CC1 [Compound I-109]
[1]
  pIC50: 4.30 to 5.00
[2]
  pIC50: 4.30 to 5.00

## CCC(=O)N1CCCC(S(=O)(=O)NNC(=O)c2cc(-c3ccccc3)cc(C)c2F)C1 (stereo not shown) [Compound I-110]
[1]
  pIC50: 4.00 to 4.30
[2]
  pIC50: ≥ 5.00

## Cc1cc(-c2ccccc2)cc(C(=O)NNS(=O)(=O)C2CCCN(C(=O)C(C)C)C2)c1F (stereo not shown) [Compound I-111]
[1]
  pIC50: 4.30 to 5.00
[2]
  pIC50: ≥ 5.00

## COCCC(=O)N1CCCC(S(=O)(=O)NNC(=O)c2cc(-c3ccccc3)cc(C)c2F)C1 (stereo not shown) [Compound I-112]
[1]
  pIC50: 4.30 to 5.00
[2]
  pIC50: 4.30 to 5.00
